Results on two molecules are retold here after patent US20200239530A1, “COMPOUNDS AND METHODS OF MODULATING PROTEIN DEGRADATION” (Vividion Therapeutics, Inc., priority 2017, published 2020).

Holding throughout (assay): Cysteine liganding, probe competition
Holding throughout (assay type): binding

For assay [1], the target named is T1, FBXO11 F-box only protein 11 (Homo sapiens, UniProt Q86XK2).
T1 construct: Cells were resuspended in cold PBS on ice and sonicated with a probe sonicator to achieve lysis; endogenous in cells
T1 sequence (Q86XK2 1-927): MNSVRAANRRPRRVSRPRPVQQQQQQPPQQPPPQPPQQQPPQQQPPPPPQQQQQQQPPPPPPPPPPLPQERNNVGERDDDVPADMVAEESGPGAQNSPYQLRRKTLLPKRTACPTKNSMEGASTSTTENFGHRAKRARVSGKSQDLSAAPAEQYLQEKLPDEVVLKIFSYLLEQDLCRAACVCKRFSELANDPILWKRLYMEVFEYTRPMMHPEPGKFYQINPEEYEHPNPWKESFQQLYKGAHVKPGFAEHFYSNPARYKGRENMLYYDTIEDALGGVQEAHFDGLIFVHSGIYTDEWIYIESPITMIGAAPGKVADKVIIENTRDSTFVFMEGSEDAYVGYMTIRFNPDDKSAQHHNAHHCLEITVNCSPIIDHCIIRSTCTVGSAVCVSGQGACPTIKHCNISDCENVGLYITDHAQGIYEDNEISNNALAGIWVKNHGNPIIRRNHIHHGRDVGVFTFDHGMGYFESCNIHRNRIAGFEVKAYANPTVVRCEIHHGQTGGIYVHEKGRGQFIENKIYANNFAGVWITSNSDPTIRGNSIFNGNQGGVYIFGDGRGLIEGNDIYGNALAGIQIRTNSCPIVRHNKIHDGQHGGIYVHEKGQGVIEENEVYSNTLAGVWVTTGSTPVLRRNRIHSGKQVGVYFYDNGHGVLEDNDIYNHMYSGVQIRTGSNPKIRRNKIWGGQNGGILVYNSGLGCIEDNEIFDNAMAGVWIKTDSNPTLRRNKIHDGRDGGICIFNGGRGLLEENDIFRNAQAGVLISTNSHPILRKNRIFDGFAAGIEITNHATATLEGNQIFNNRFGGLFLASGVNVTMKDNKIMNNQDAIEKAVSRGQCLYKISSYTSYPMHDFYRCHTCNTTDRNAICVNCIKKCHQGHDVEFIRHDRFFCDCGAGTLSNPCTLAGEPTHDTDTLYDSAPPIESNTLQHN
Summed up: (§1)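 Probe competition in native proteome: 5 mg/ml lysate, compound 1 hr 25° C, then desthiobiotin iodoacetamide (10 mM stock) 1 hr 25° C; acetone ppt, urea/DTT reduction, iodoacetamide alkylation, trypsin, streptavidin pull-down.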

Assay [2] concerns the target T2, CEP44 Centrosomal protein of 44 kDa (Homo sapiens, UniProt Q9C0F1).
T2 construct: 200 μL of lysate containing 5 mg/ml proteome was treated with 2 μL of 100× compound stock; endogenous in cells
T2 sequence (Q9C0F1 1-390): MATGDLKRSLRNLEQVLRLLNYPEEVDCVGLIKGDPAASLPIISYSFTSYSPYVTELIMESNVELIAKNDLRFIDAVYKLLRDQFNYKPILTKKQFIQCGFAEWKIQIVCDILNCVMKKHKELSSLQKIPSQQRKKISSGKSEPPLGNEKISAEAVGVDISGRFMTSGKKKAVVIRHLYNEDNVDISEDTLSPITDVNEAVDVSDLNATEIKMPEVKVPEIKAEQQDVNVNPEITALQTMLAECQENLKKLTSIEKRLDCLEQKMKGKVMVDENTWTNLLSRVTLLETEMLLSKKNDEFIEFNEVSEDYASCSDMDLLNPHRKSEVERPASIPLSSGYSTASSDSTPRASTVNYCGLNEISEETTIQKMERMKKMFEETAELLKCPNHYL
The method, boiled down:
as §1

The target in assay [3] is T3, BIRC3 Baculoviral IAP repeat-containing protein 3 (Homo sapiens, UniProt Q13489).
T3 construct: Cells were resuspended in cold PBS on ice and sonicated with a probe sonicator to achieve lysis; endogenous in cells
T3 sequence (Q13489 whole entry): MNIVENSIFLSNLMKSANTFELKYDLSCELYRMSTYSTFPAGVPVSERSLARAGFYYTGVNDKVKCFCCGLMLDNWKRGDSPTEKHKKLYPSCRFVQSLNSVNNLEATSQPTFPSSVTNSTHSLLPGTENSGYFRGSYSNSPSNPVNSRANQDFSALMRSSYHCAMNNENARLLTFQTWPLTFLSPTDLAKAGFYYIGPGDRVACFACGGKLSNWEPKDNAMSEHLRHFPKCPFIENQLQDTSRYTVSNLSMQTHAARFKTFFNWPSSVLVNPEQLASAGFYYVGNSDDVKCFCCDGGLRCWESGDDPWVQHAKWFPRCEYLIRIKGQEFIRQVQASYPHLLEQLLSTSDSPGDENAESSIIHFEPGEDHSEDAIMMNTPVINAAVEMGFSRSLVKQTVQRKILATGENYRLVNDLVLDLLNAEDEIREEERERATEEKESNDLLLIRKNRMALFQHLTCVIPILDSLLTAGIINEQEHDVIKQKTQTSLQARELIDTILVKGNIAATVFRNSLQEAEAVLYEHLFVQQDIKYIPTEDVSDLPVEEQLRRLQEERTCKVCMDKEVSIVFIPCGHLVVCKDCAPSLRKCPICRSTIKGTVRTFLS
Summed up: as §1

Regarding `COc1ccc2c(c1)CCCN2C(=O)CCl` [KB02], the Liganded entry is reported as “YES” in assay [1] (FBXO11 Res# 581, uniprot Q86XK2); “YES” in assay [2] (CEP44 Res# 28, uniprot Q9C0F1); “YES” in assay [3] (BIRC3 Res# 28, uniprot Q13489).

Take `O=C(CCl)Nc1cc(C(F)(F)F)cc(C(F)(F)F)c1` [KBO3]: the “100 Max” value in assay [1] (uniprot Q86XK2) is given as −13.9; in assay [2] (uniprot Q9C0F1, in % (unit assumed)), 14.85; in assay [3] (uniprot Q13489), 1.3. Besides, the 100 ave in assay [1] (uniprot Q86XK2) is reported as −20.1; in assay [2] (uniprot Q9C0F1) it was 14.85; in assay [3] (uniprot Q13489), −2.6. Besides, the “500 Max” value in assay [1] (uniprot Q86XK2) is 28.6; in assay [2] (uniprot Q9C0F1, unit assumed), 69.9%; in assay [3] (uniprot Q13489), 18.7. Also, the 500 ave turned out to be 20.3 in assay [1] (uniprot Q86XK2), 69.9 in assay [2] (uniprot Q9C0F1) and 18.7 in assay [3] (uniprot Q13489).
